Test systems include A549; BT-549; KM12; DU-145; HCT-116; HL-60; HCT-15; NCI-H460; SNB-19; UACC-257; MDA-MB-231; OVCAR-3; SK-MEL-28; NCI-H23; UO-31; COLO 205; U-251; NCI/ADR-RES; T47D; LOX IMVI.
Holding throughout (experiment): NCI-60 cell line screen, 48 h

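How tested: cells in 96-well plates exposed to compound for 48 hours at five concentrations. GI50 marks 50% less growth.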 Active and inactive are the calls of the source. Cut-off read from the data, not from the text of the source: active = GI50 up to about 1.1 µM and inactive = higher. Some results are limits rather than exact numbers.

In the case of `S=c1[nH]c(=S)c2cc(Sc3ccc4[nH]c(=S)[nH]c(=S)c4c3)ccc2[nH]1`, the GI50 was 59.7 µM (inactive) with A549; 31.2 µM (inactive) in the test with BT-549; 24 µM (inactive) in the test on KM12; 62.4 µM (inactive) with DU-145; 48.1 µM (inactive) with HCT-116; 20.8 µM (inactive) with HL-60. Also, the GI50 with HCT-15 is 39.2 µM; with NCI-H460, 45.5 µM (inactive); with SNB-19, 30.4 µM (inactive); in the test on UACC-257, 43.3 µM (inactive); in the test on MDA-MB-231, 59.6 µM (inactive); in the test on OVCAR-3, 36.1 µM (inactive). In addition, the GI50 in the test with SK-MEL-28 is 53.8 µM (inactive); with NCI-H23, 28 µM (inactive); in the test with UO-31, 26.9 µM (inactive); in the test with COLO 205, 26.9 µM (inactive); in the test on U-251 it was 33 µM (inactive); with NCI/ADR-RES, > 100 µM (inactive). Moreover, the GI50 with T47D was 50.5 µM (inactive).

As for `O=C(N/N=C/C=C/c1ccccc1)c1ccccc1Nc1ccccc1C(=O)N/N=C/C=C/c1ccccc1`, the GI50 in the test on A549 was > 100 µM (inactive); with BT-549, > 100 µM (inactive); with KM12, > 100 µM (inactive); in the test with DU-145 it was > 100 µM (inactive); in the test on HCT-116 it was 90.8 µM (inactive); with HL-60, > 100 µM (inactive). The GI50 is more than 100 µM in the test with HCT-15; 26.5 µM (inactive) in the test with NCI-H460; 11.9 µM (inactive) with SNB-19; > 100 µM (inactive) in the test with UACC-257; 49.5 µM (inactive) in the test with MDA-MB-231; > 100 µM (inactive) with OVCAR-3. Also, the GI50 was > 100 µM (inactive) in the test on SK-MEL-28; > 100 µM (inactive) in the test on NCI-H23; > 100 µM (inactive) with UO-31; > 100 µM (inactive) in the test with COLO 205; 20.8 µM (inactive) in the test on U-251; > 100 µM (inactive) in the test on NCI/ADR-RES. The GI50 in the test with T47D was > 100 µM (inactive).

Take `O1C2C1C1OC1C1OC1C1OC21` (configuration not stated): the GI50 is > 100 µM (inactive) with A549; > 100 µM (inactive) in the test on BT-549; > 100 µM (inactive) with KM12; > 100 µM (inactive) with DU-145; > 100 µM (inactive) in the test with HCT-116; more than 100 µM in the test on HCT-15. Besides, the GI50 in the test on SNB-19, in the test on UACC-257, in the test on MDA-MB-231, with LOX IMVI, with SK-MEL-28 and in the test with NCI-H23 was > 100 µM (inactive) throughout. For the same compound, the GI50 with UO-31, with COLO 205, with U-251, in the test with NCI/ADR-RES and in the test on T47D was > 100 µM (inactive) throughout.

Consider `COc1cc2c(cc1OCCN1CCN(CCOc3cc4c(cc3OC)C(=O)N3CCC[C@H]3C=N4)CC1)N=C[C@@H]1CCCN1C2=O`, for which the GI50 is > 88.9 µM (inactive) in the test on A549; 21.5 µM (inactive) in the test with BT-549; 30.8 µM (inactive) in the test with KM12; 37.5 µM (inactive) in the test on DU-145; 29.5 µM (inactive) in the test with HCT-116; 4.3 µM (inactive) in the test with HL-60. The GI50 with HCT-15 is more than 64.1 µM; in the test with NCI-H460, 13.5 µM (inactive); with SNB-19 it was 35.5 µM (inactive); in the test with UACC-257 it was > 56.6 µM (inactive); in the test on MDA-MB-231 it was 17.6 µM (inactive); with OVCAR-3, 25.9 µM (inactive). Moreover, the GI50 was 60 µM (inactive) in the test on SK-MEL-28; 17.1 µM (inactive) in the test with NCI-H23; 35.8 µM (inactive) in the test on UO-31; 24 µM (inactive) in the test with COLO 205; 24.8 µM (inactive) with U-251; > 100 µM (inactive) with NCI/ADR-RES. For the same compound, the GI50 in the test with T47D was 25.4 µM (inactive).

Turning to `Oc1c(/N=N/c2ccccc2)c2ccccc2c2ccc3ccccc3c12`, the GI50 in the test with A549 is 43.2 µM (inactive); in the test on BT-549, 73.8 µM (inactive); with KM12 it was > 100 µM (inactive); with DU-145, > 100 µM (inactive); in the test on HCT-116, > 100 µM (inactive); in the test with HL-60, 47.3 µM (inactive). Moreover, the GI50 was more than 100 µM in the test on HCT-15; > 100 µM (inactive) in the test with NCI-H460; > 100 µM (inactive) in the test with SNB-19; > 100 µM (inactive) in the test on UACC-257; 78.3 µM (inactive) in the test on MDA-MB-231; > 100 µM (inactive) in the test on OVCAR-3. The GI50 in the test on SK-MEL-28 was > 100 µM (inactive); in the test with NCI-H23, > 100 µM (inactive); in the test with UO-31, > 100 µM (inactive); with COLO 205 it was > 100 µM (inactive); with U-251 it was 39.6 µM (inactive); with NCI/ADR-RES it was > 100 µM (inactive). The GI50 in the test on T47D is > 100 µM (inactive).

Take `O=C1CC(=O)NC(NN2C(=O)/C(=C/c3ccccc3)N=C2c2ccccc2)=N1`: the GI50 in the test on A549 is > 100 µM (inactive); in the test on BT-549, 26.6 µM (inactive); in the test with KM12, > 100 µM (inactive); in the test with DU-145 it was > 100 µM (inactive); with HCT-116, > 100 µM (inactive); with HCT-15 it was more than 100 µM. For the same compound, the GI50 is > 100 µM (inactive) in the test with NCI-H460; > 100 µM (inactive) in the test on UACC-257; > 100 µM (inactive) in the test on MDA-MB-231; > 100 µM (inactive) in the test with OVCAR-3; > 100 µM (inactive) in the test on SK-MEL-28; 39 µM (inactive) with NCI-H23. The GI50 in the test on UO-31 is 32.9 µM (inactive); in the test with COLO 205, > 100 µM (inactive); with U-251, > 100 µM (inactive); in the test on NCI/ADR-RES it was > 100 µM (inactive); in the test with T47D, > 100 µM (inactive).

As to `O=C(O)C1=C/C(=C(/c2ccccc2)c2cc(C(=O)O)c(O)c3ccccc23)c2ccccc2C1=O`, the GI50 in the test on A549 is > 100 µM (inactive); with BT-549, > 100 µM (inactive); in the test on KM12 it was > 100 µM (inactive); with DU-145, > 100 µM (inactive); with HCT-116, > 100 µM (inactive); in the test on HL-60, < 0.01 µM (active). The GI50 in the test with HCT-15 is more than 100 µM; with NCI-H460 it was > 100 µM (inactive); with SNB-19, > 100 µM (inactive); in the test with UACC-257 it was > 100 µM (inactive); in the test on MDA-MB-231, > 100 µM (inactive); with OVCAR-3 it was > 100 µM (inactive). For the same compound, the GI50 in the test on SK-MEL-28, in the test with NCI-H23, in the test with UO-31, in the test with COLO 205, with U-251 and in the test with NCI/ADR-RES was > 100 µM (inactive) in each case. Besides, the GI50 in the test with T47D was > 100 µM (inactive).

For the compound `COc1ccc(C(=O)C#Cc2cn(C3CC(O)C(CO)O3)c(=O)[nH]c2=O)cc1` (configuration not stated), the GI50 in the test with A549 is > 100 µM (inactive); in the test with BT-549, 20.2 µM (inactive); with KM12 it was > 100 µM (inactive); in the test on DU-145, > 100 µM (inactive); in the test with HCT-116, 39.7 µM (inactive); with HL-60, > 10 µM (inactive). Besides, the GI50 in the test with HCT-15 was more than 100 µM; in the test on NCI-H460, > 100 µM (inactive); in the test with SNB-19 it was > 100 µM (inactive); in the test with UACC-257 it was 94.8 µM (inactive); with MDA-MB-231, > 100 µM (inactive); in the test on OVCAR-3 it was 19.2 µM (inactive). Further, the GI50 is 20.4 µM (inactive) in the test on SK-MEL-28; > 100 µM (inactive) with NCI-H23; > 100 µM (inactive) in the test with UO-31; 33.3 µM (inactive) in the test on COLO 205; > 100 µM (inactive) in the test with U-251; 42.6 µM (inactive) with NCI/ADR-RES. In the test with T47D, the GI50 is 19.2 µM (inactive).

Consider `CC(=O)OCC1OC(c2c(OC(C)=O)cc(C)c3c(=O)cc(/C(C(C)=O)=C(\C)O)oc23)C(OC(C)=O)C(OC(C)=O)C1OC(C)=O` (configuration not stated), for which the GI50 in the test on A549, in the test on BT-549, in the test with KM12, with DU-145, with HCT-116 and in the test on HL-60 was > 100 µM (inactive) each time. The GI50 with HCT-15 is more than 100 µM; with NCI-H460 it was > 100 µM (inactive); in the test on SNB-19, > 100 µM (inactive); with UACC-257, > 100 µM (inactive); in the test with MDA-MB-231 it was > 100 µM (inactive); with OVCAR-3, > 100 µM (inactive). The GI50 with SK-MEL-28, with NCI-H23, in the test with UO-31, in the test with COLO 205, in the test with U-251 and with NCI/ADR-RES was > 100 µM (inactive) throughout. Further, in the test with T47D, the GI50 is > 100 µM (inactive).

For `O=C(CN1CCOCC1)Nc1ccc2c(c1)C1Oc3ccccc3CC1CO2` (configuration not stated), the GI50 in the test with A549 was > 100 µM (inactive); in the test with BT-549 it was 38.1 µM (inactive); in the test with KM12, > 100 µM (inactive); with DU-145, > 100 µM (inactive); with HCT-116 it was > 100 µM (inactive); with HCT-15 it was more than 100 µM. For the same compound, the GI50 in the test with SNB-19, in the test with UACC-257, in the test with MDA-MB-231, in the test on OVCAR-3, in the test on LOX IMVI and in the test with NCI-H23 was > 100 µM (inactive) each time. The GI50 in the test with UO-31, in the test on COLO 205, in the test on U-251, in the test on NCI/ADR-RES and in the test on T47D was > 100 µM (inactive) each time.

Consider `O=c1nc(Oc2c(F)c(F)c(F)c(F)c2F)ccn1C1OC(CO)C(O)C1O` (configuration not stated), for which the GI50 in the test with A549 is > 100 µM (inactive); in the test on BT-549, > 100 µM (inactive); in the test on KM12 it was > 100 µM (inactive); with DU-145, > 100 µM (inactive); with HCT-116 it was > 100 µM (inactive); with HCT-15, more than 100 µM. Further, the GI50 with SNB-19 is > 100 µM (inactive); with UACC-257, > 100 µM (inactive); with MDA-MB-231 it was > 100 µM (inactive); in the test on OVCAR-3, 53.8 µM (inactive); with LOX IMVI it was > 100 µM (inactive); in the test on SK-MEL-28, > 100 µM (inactive). For the same compound, the GI50 with NCI-H23, in the test with UO-31, in the test on COLO 205, in the test with U-251, in the test on NCI/ADR-RES and with T47D was > 100 µM (inactive) each time.

The values above are taken from ChEMBL document CHEMBL1201862, “PubChem BioAssay data set” (2004).
